Source: patent publication US9815796B2 (Merck Sharp & Dohme Corp., priority 2013, dated 2017)
Read-outs that look alike come from different tables or passages of the source.

Key:
Rhesus PDE2A3 = Rhesus PDE2A3 (Macaca mulatta, UniProt B3VTJ2); assay: PDE2 fluorescence polarization (IMAP FP) inhibition assay, rhesus enzyme; type: biochemical, rhesus macaque
Method in brief: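 IMAP FP (mP from parallel and perpendicular fluorescence against substrate-only control) was read ≥1 h after adding binding reagent. The preceding 60 min room-temperature reaction contained FAM-cAMP (50 nM) and cGMP (1 uM) in pH 7.2 Tris buffer with MgCl2 and DTT. Enzyme was supernatant of sonicated AD293 cells expressing rhesus PDE2A3; compounds were 3-fold titrated, DMSO 1% final.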

human PDE2A1 = human PDE2A1 (Homo sapiens (Human), UniProt O00408); assay: IMAP FP PDE selectivity panel, human PDE2A1; type: biochemical
Method in brief: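 IMAP FP format: substrate 50 nM FAM-cAMP plus 1000 nM cGMP, enzyme (insect-cell GST-tagged human PDE2A1) at ~20% conversion, 60 min reaction at room temperature. Apparent inhibition constants calculated from parallel/perpendicular fluorescence with KM 10,000 nM.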

[1] = Rhesus PDE2, Lab A, read-out: Rhesus PDE2 Ki (nM) - Lab A
[2] = Rhesus PDE2, Lab B, read-out: Rhesus PDE2 Ki (nM) - Lab B
[3] = Human PDE2, Lab B, read-out: Human PDE2 Ki (nM) - Lab B
[4] = Human PDE2, Lab A, read-out: Human PDE2 Ki (nM) - Lab A

Chain of human PDE2A1 (O00408 other isoform, or with tags, fused parts or gaps): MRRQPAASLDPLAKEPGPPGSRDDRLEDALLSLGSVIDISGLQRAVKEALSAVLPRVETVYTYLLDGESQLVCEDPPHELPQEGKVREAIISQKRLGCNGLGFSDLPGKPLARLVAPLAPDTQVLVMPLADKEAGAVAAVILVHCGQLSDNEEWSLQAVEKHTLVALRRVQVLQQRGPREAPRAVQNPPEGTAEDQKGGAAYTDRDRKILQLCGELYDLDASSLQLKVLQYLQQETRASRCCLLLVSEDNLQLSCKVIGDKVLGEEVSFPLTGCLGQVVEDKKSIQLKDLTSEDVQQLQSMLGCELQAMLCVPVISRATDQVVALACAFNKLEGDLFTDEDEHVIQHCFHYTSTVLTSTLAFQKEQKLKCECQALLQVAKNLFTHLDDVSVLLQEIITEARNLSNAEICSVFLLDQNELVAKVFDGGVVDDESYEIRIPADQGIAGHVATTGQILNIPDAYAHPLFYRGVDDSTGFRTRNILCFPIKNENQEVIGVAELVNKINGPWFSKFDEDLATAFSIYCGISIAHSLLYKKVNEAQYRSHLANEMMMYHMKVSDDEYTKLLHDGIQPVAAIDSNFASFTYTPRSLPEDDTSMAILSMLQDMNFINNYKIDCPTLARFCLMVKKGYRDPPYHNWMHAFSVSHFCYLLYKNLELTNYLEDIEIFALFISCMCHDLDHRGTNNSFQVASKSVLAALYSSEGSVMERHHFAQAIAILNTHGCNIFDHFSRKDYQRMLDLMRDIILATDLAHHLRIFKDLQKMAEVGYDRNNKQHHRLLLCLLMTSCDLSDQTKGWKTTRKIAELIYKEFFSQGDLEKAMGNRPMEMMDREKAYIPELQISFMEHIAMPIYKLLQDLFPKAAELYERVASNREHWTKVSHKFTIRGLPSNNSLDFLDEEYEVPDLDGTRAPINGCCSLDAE
Chain of Rhesus PDE2A3 (B3VTJ2 1-941): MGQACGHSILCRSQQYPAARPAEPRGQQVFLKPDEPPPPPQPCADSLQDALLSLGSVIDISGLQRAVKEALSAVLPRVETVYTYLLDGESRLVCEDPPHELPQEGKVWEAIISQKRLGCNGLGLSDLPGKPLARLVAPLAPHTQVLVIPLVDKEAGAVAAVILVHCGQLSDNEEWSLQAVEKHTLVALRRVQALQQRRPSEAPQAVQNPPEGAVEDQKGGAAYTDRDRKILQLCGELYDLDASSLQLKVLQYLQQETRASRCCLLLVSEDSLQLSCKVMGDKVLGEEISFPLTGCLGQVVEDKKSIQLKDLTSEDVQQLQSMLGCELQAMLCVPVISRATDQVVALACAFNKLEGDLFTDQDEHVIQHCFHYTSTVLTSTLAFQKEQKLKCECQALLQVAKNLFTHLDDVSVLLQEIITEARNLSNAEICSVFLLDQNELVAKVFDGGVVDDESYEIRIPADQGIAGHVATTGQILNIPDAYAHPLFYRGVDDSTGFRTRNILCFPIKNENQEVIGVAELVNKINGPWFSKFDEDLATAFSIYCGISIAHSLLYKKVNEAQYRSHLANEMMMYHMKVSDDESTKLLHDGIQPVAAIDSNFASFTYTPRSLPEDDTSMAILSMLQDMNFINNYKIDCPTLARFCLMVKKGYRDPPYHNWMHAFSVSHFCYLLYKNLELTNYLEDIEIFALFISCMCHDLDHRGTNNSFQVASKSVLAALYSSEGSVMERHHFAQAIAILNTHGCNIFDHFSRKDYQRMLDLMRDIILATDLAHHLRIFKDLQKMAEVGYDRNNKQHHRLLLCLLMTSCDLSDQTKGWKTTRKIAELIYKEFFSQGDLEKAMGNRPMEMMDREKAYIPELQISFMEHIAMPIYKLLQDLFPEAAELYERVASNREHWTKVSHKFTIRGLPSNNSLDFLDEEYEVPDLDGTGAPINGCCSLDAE

Ki (Rhesus PDE2A3; [1]) [nM]	Ki (Rhesus PDE2A3; [2]) [nM]	Ki (human PDE2A1; [3]) [nM]	Ki (human PDE2A1; [4]) [nM]	SMILES
1.7	2.5	2.7	–	CC(C)[C@@H](NC(=O)c1cc(=O)[nH]c(C2CC2)n1)c1ccc(S(F)(F)(F)(F)F)cc1 [Example 247, 2-cyclopropyl-N-{(1R)-2-methyl-1-[4-(pentafluoro-λ^6-sulfanyl)phenyl]propyl}-6-oxo-1,6-dihydropyrimidine-4-carboxamide]
2	3.4	3.5	–	CC(C)[C@@H](NC(=O)c1cc(=O)[nH]c(-c2ncccn2)n1)c1ccc(C(F)(F)F)c(F)c1 [Example 248, N-{(1R)-1-[3-fluoro-4-(trifluoromethyl)phenyl]-2-methylpropyl}-6-oxo-1,6-dihydro-2,2′-bipyrimidine-4-carboxamide]
2	4.3	4.1	–	Cc1nc(C(=O)N[C@@H](c2ccc(C(F)(F)F)cc2)C(C)(C)C)cc(=O)[nH]1 [Example 249, N-{(1R)-2,2-dimethyl-1-[4-(trifluoromethyl)phenyl]propyl}-2-methyl-6-oxo-1,6-dihydropyrimidine-4-carboxamide]
5.3	5.4	6.3	–	C[C@@H](NC(=O)c1cc(=O)[nH]c(-c2ncccn2)n1)c1ccc(C2CC2)cc1 [Example 250, N-[(1R)-1-(4-cyclopropylphenyl)ethyl]-6-oxo-1,6-dihydro-2,2′-bipyrimidine-4-carboxamide]
2	4	3.6	–	CC(C)[C@@H](NC(=O)c1cc(=O)[nH]c(C2CC2)n1)c1ccc(C(F)(F)F)c(F)c1 [Example 251, 2-cyclopropyl-N-{(1R)-1-[3-fluoro-4-(trifluoromethyl)phenyl]-2-methylpropyl}-6-oxo-1,6-dihydropyrimidine-4-carboxamide]
8.7	14	20	~13	O=C(NC1(c2ccc(SC(F)(F)F)c(F)c2)CC1)c1cc(=O)[nH]c(C2CC2)n1 [Example 252, 2-cyclopropyl-N-(1-{3-fluoro-4-[(trifluoromethyl)sulfanyl]phenyl}cyclopropyl)-6-oxo-1,6-dihydropyrimidine-4-carboxamide]
14	–	–	17	O=C(NC1(c2ccc(SC(F)(F)F)c(F)c2)CC1)c1cc(=O)[nH]c(-c2ncccn2)n1 [Example 253, N-(1-{3-fluoro-4-[(trifluoromethyl)sulfanyl]phenyl}cyclopropyl)-6-oxo-1,6-dihydro-2,2′-bipyrimidine-4-carboxamide]
17	23	22	~13	CC[C@@H](NC(=O)c1cc(=O)[nH]c(C2CC2)n1)c1ccc(C(F)(F)F)c(F)c1 [Example 254, 2-cyclopropyl-N-{(1R)-1-[3-fluoro-4-(trifluoromethyl)phenyl]propyl}-6-oxo-1,6-dihydropyrimidine-4-carboxamide]
3.7	4.7	4.9	–	CC(C)(C)[C@@H](NC(=O)c1cc(=O)[nH]c(-c2ncccn2)n1)c1ccc(C(F)(F)F)cc1 [Example 255, N-{(1R)-2,2-dimethyl-1-[4-(trifluoromethyl)phenyl]propyl}-6-oxo-1,6-dihydro-2,2′-bipyrimidine-4-carboxamide]
13	21	20	~12	C[C@@H](NC(=O)c1cc(=O)[nH]c(C2CC2)n1)c1ccc(C2CC2)cc1 [Example 256, 2-cyclopropyl-N-[(1R)-1-(4-cyclopropylphenyl)ethyl]-6-oxo-1,6-dihydropyrimidine-4-carboxamide]
2.6	4	3.8	–	CC[C@@H](NC(=O)c1cc(=O)[nH]c(-c2ncccn2)n1)c1ccc(S(F)(F)(F)(F)F)cc1 [Example 257, 6-oxo-N-{(1R)-1-[4-(pentafluoro-λ^6-sulfanyl)phenyl]propyl}-1,6-dihydro-2,2′-bipyrimidine-4-carboxamide]
19	41	39	–	Cc1nc(C(=O)N[C@H](C)c2ccc(C3CC3)cc2)cc(=O)[nH]1 [Example 258, N-[(1R)-1-(4-cyclopropylphenyl)ethyl]-2-methyl-6-oxo-1,6-dihydropyrimidine-4-carboxamide]
124	209	179	–	Cc1nc(C(=O)NC(C)(C)c2ccc(SC(F)(F)F)c(F)c2)cc(=O)[nH]1 [Example 259, N-(1-{3-fluoro-4-[(trifluoromethyl)sulfanyl]phenyl}-1-methylethyl)-2-methyl-6-oxo-1,6-dihydropyrimidine-4-carboxamide]
1	1.8	1.8	–	C[C@@H](NC(=O)c1cc(=O)[nH]c(-c2ncccn2)n1)c1ccc(SC(F)(F)F)c(F)c1 [Example 260, N-[(1R)-1-{3-fluoro-4-[(trifluoromethyl)sulfanyl]phenyl}ethyl]-6-oxo-1,6-dihydro-2,2′-bipyrimidine-4-carboxamide]
18	37	33	–	Cc1nc(C(=O)NC2(c3ccc(SC(F)(F)F)c(F)c3)CC2)cc(=O)[nH]1 [Example 261, N-(1-{3-fluoro-4-[(trifluoromethyl)sulfanyl]phenyl}cyclopropyl)-2-methyl-6-oxo-1,6-dihydropyrimidine-4-carboxamide]
0.65	0.85	0.79	–	CC(C)(C)[C@@H](NC(=O)c1cc(=O)[nH]c(C2CC2)n1)c1ccc(C(F)(F)F)cc1 [Example 262, 2-cyclopropyl-N-{(1R)-2,2-dimethyl-1-[4-(trifluoromethyl)phenyl]propyl}-6-oxo-1,6-dihydropyrimidine-4-carboxamide]
1.5	1.9	2.1	–	CC[C@@H](NC(=O)c1cc(=O)[nH]c(-c2ncccn2)n1)c1ccc(SC(F)(F)F)c(F)c1 [Example 263, N-[(1R)-1-{3-fluoro-4-[(trifluoromethyl)sulfanyl]phenyl}propyl]-6-oxo-1,6-dihydro-2,2′-bipyrimidine-4-carboxamide]
4.6	7.9	7.7	–	CC[C@@H](NC(=O)c1cc(=O)[nH]c(-c2ncccn2)n1)c1ccc(C(F)(F)F)c(F)c1 [Example 264, N-{(1R)-1-[3-fluoro-4-(trifluoromethyl)phenyl]propyl}-6-oxo-1,6-dihydro-2,2′-bipyrimidine-4-carboxamide]
1.2	1.6	1.5	–	CC(C)[C@@H](NC(=O)c1cc(=O)[nH]c(-c2ncccn2)n1)c1ccc(S(F)(F)(F)(F)F)cc1 [Example 265, N-{(1R)-2-methyl-1-[4-(pentafluoro-λ^6-sulfanyl)phenyl]propyl}-6-oxo-1,6-dihydro-2,2′-bipyrimidine-4-carboxamide]
86	–	–	65	CC(C)(NC(=O)c1cc(=O)[nH]c(C2CC2)n1)c1ccc(SC(F)(F)F)c(F)c1 [Example 266, 2-cyclopropyl-N-(1-{3-fluoro-4-[(trifluoromethyl)sulfanyl]phenyl}-1-methylethyl)-6-oxo-1,6-dihydropyrimidine-4-carboxamide]
146	–	–	83	CCc1ccc(C(C)NC(=O)c2cc(=O)[nH]c(C)n2)cc1 (stereo not drawn) [Example 268, N-[1-(4-ethylphenyl)ethyl]-2-methyl-6-oxo-1,6-dihydropyrimidine-4-carboxamide]
